The assay addresses His-tagged recombinant human Gal-3 (hGal-3) (Homo sapiens, UniProt P17931). Kind of assay: Gal-3 HTRF assay: His-tagged hGal-3 binding to B-ASF, Anti-His terbium antibody / Streptavidin d2 detection.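 Note: compound preincubated 30 min with hGal-3, then 1 h with B-ASF, DMSO wells with B-ASF serving as positive control and those lacking B-ASF as negative control.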 The conditions noted are these: 15 nM hGal-3, 15 nM B-ASF, three replicates, room temperature. Background: Time-resolved FRET reads energy transfer from a long-lived donor to a nearby acceptor.
Sequence of His-tagged recombinant human Gal-3 (hGal-3) (P17931 whole entry): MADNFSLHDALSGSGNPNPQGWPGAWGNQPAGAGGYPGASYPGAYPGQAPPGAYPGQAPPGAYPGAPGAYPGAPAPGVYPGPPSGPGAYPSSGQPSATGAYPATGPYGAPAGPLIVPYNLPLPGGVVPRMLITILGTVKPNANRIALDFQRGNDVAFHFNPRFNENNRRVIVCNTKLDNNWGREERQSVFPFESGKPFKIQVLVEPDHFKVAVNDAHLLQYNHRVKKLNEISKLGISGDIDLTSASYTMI
Regarding `COc1ncc(-c2cn(C3COCC(SC4OC(CO)C(O)C(n5cc(-c6cc(F)c(F)c(F)c6)nn5)C4OCC(=O)N4CC(C)OC(C)C4)C3O)nn2)cn1` (single isomer, unassigned) [Example 32], the IC50 was found to be 19 nM.

Regarding `COc1cnc(-c2cn([C@H]3COC[C@@H](S[C@@H]4O[C@H](CO)[C@H](O)[C@H](n5cc(-c6cc(F)c(F)c(F)c6)nn5)[C@H]4OC)[C@@H]3O)nn2)nc1N` [Example 21, (2R,3R,4S,5R,6S)-6-(((3R,4R,5S)-5-(4-(4-amino-5-methoxypyrimidin-2-yl)-1H-1,2,3-triazol-1-yl)-4-hydroxytetrahydro-2H-pyran-3-yl)thio)-2-(hydroxymethyl)-5-methoxy-4-(4-(3,4,5-trifluorophenyl)-1H-1,2,3-triazol-1-yl)tetrahydro-2H-pyran-3-ol], the IC50 turned out to be 23 nM.

`O=C(O)COC1C(SC2COCC(n3cc(-c4cncnc4)nn3)C2O)OC(CO)C(O)C1n1cc(-c2cc(F)c(F)c(F)c2)nn1` [Example 26, 2-(((2S,3R,4S,5R,6R)-5-hydroxy-2-(((3R,4R,5S)-4-hydroxy-5-(4-(pyrimidin-5-yl)-1H-1,2,3-triazol-1-yl)tetrahydro-2H-pyran-3-yl)thio)-6-(hydroxymethyl)-4-(4-(3,4,5-trifluorophenyl)-1H-1,2,3-triazol-1-yl)tetranydro-2H-pyran-3-yl)oxy)acetic acid]: the 50% inhibitory concentration (IC50) stood at 15 nM.

As to `COC(=O)COC1C(SC2COCC(n3cc(-c4cncnc4)nn3)C2O)OC(CO)C(O)C1n1cc(-c2cc(F)c(F)c(F)c2)nn1` [Example 27, methyl 2-(((2S,3R,4S,5R,6R)-5-hydroxy-2-(((3R,4R,5S)-4-hydroxy-5-(4-(pyriin-5-yl)-1H-1,2,3-triazol-1-yl)tetrahydro-2H-pyran-3-yl)thio)-6-(hydroxymethyl)-4-(4-(3,4,5-trifluorophenyl)-1H-1,2,3-triazol-1-yl)tetrahydro-2H-pyran-3-yl)oxy)acetate], the IC50 was found to be 17 nM.

Regarding `O=C(CO[C@@H]1[C@@H](n2cc(-c3cc(F)c(F)c(F)c3)nn2)[C@@H](O)[C@@H](CO)O[C@H]1S[C@@H]1COC[C@H](n2cc(-c3cncnc3)nn2)[C@H]1O)N1CCOCC1` [Example 28, 2-(((2S,3R,4S,5R,6R)-5-hydroxy-2-(((3R,4R,5S)-4-hydroxy-5-(4-(pyrimidin-5-yl)-1H-1,2,3-triazol-1-yl)tetrahydro-2H-pyran-3-yl)thio)-6-(hydroxymethyl)-4-(4-(3,4,5-trifluorophenyl)-1H-1,2,3-triazol-1-yl)tetrahydro-2H-pyran-3-yl)oxy)-1-morpholinoethan-1-one], the half-inhibitory concentration (IC50) is 10 nM.

On to `CN(C(=O)COC1C(SC2COCC(n3cc(-c4cncnc4)nn3)C2O)OC(CO)C(O)C1n1cc(-c2cc(F)c(F)c(F)c2)nn1)c1ccccc1` [Example 29, 2-(((2S,3R,4S,5R,6R)-5-hydroxy-2-(((3R,4R,5S)-4-hydroxy-5-(4-(pyrimidin-5-yl)-1H-1,2,3-triazol-1-yl)tetrahydro-2H-pyran-3-yl)thio)-6-(hydroxymethy)-4-(4-(3,4,5-trifluorophenyl)-1H-1,2,3-triazol-1-yl)-2H-pyran-3-yl)oxy)-N-methyl-N-phenylacetamide], for which the IC50 turned out to be 25 nM.

`COc1ncc(-c2cn([C@H]3COC[C@@H](S[C@@H]4O[C@H](CO)[C@H](O)[C@H](n5cc(-c6cc(F)c(F)c(F)c6)nn5)[C@H]4OCC(=O)O)[C@@H]3O)nn2)cn1` [Example 30, 2-(((2S,3R,4S,5R,6R)-5-hydroxy-2-(((3R,4R,5S)-4-hydroxy-5-(4-(2-methoxypyrimidin-5-yl)-1H-1,2,3-triazol-1-yl)tetrahydro-2H-pyran-3-yl)thio)-6-(hydroxymethyl)-4-(4-(3,4,5-trifluorophenyl)-1H-1,2,3-triazol-1-yl)tetrahydro-2H-pyran-3-yl)oxy)acetic acid]: the IC50 is 8 nM.

Take `COc1ncc(-c2cn([C@H]3COC[C@@H](S[C@@H]4O[C@H](CO)[C@H](O)[C@H](n5cc(-c6cc(F)c(F)c(F)c6)nn5)[C@H]4OCC(=O)N4CCOCC4)[C@@H]3O)nn2)cn1` [Example 31, 2-(((2S,3R,4S,5R,6R)-5-hydroxy-2-(((3R,4R,5S)-4-hydroxy-5-(4-(2-methoxypyrimidin-5-yl)-1H-1,2,3-triazol-1-yl)tetrahydro-2H-pyran-3-yl)thio)-6-(hydroxymethyl)-4-(4-(3,4,5-trifluorophenyl)-1H-1,2,3-triazol-1-yl)tetrahydro-2H-pyran-3-yl)oxy)-1-morpholinoethan-1-one]: the IC50 came out at 13 nM.

As to `COc1ncc(-c2cn(C3COCC(SC4OC(CO)C(O)C(n5cc(-c6cc(F)c(F)c(F)c6)nn5)C4OCC(=O)N4CCS(=O)(=O)CC4)C3O)nn2)cn1` [Example 33, 1-(1,1-dioxidothiomorpholino)-2-(((2S,3R,4S,5R,6R)-5-hydroxy-2-(((3R,4R,5S)-4-hydroxy-5-(4-(2-methoxypyrimidin-5-yl)-1-1,2,3-triazol-1-yl)tetrahydro-2H-pyran-3-yl)thio)-6-(hydroxymethyl)-4-(4-(3,4,5-trifluorophenyl)-1H-1,2,3-triazol-1-yl)tetrahydro-2H-pyran-3-yl)oxy)ethan-1-one], the IC50 came out at 12 nM.

With `COc1ncc(-c2cn([C@H]3COC[C@@H](S[C@@H]4O[C@H](CO)[C@H](O)[C@H](n5cc(-c6cc(F)c(F)c(F)c6)nn5)[C@H]4OCC(=O)N4CC(O)C4)[C@@H]3O)nn2)cn1` [Example 34, 2-(((2S,3R,4S,5R,6R)-5-hydroxy-2-(((3R,4R,5S)-4-hydroxy-5-(4-(2-methoxypyrimidin-5-yl)-1H-1,2,3-triazol-1-yl)tetrahydro-2H-pyran-3-yl)thio)-6-(hydroxymethyl)-4-(4-(3,4,5-trifluorophenyl)-1H-1,2,3-triazol-1-yl)tetrahydro-2H-pyran-3-yl)oxy)-1-(3-hydroxyazetidin-1-yl)ethan-1-one], the IC50 amounted to 24 nM.

As to `COc1ncc(-c2cn([C@H]3COC[C@@H](S[C@@H]4O[C@H](CO)[C@H](O)[C@H](n5cc(-c6cc(F)c(F)c(F)c6)nn5)[C@H]4OCC(=O)N4CCC4)[C@@H]3O)nn2)cn1` [Example 35, 1-(azetidin-1-yl)-2-(((2S,3R,4S,5R,6R)-5-hydroxy-2-(((3R,4R,5S)-4-hydroxy-5-(4-(2-methoxypyrimidin-5-yl)-1H-1,2,3-triazol-1-yl)tetrahydro-2H-pyran-3-yl)thio)-6-(hydroxymethyl)-4-(4-(3,4,5-trifluorophenyl)-1H-1,2,3-triazol-1-yl)tetrahydro-2H-pyran-3-yl)oxy)ethan-1-one], the IC50 was 32 nM.

Consider `CO[C@@H]1[C@@H](n2cc(-c3cccnc3)nn2)[C@@H](O)[C@@H](CO)O[C@H]1S[C@@H]1COC[C@H](n2cc(-c3ccccc3)nn2)[C@H]1O` [Example A1, (2R,3R,4S,5R,6S)-6-(((3R,4R,5S)-4-hydroxy-5-(4-phenyl-1H-1,2,3-triazol-1-yl)tetrahydro-2H-pyran-3-yl)thio)-2-(hydroxymethyl)-5-methoxy-4-(4-(pyridin-3-yl)-1H-1,2,3-triazol-1-yl)tetrahydro-2H-pyran-3-ol], for which the IC50 is 1100 nM.

Take `CO[C@@H]1[C@@H](n2cc(-c3ccncc3)nn2)[C@@H](O)[C@@H](CO)O[C@H]1S[C@@H]1COC[C@H](n2cc(-c3ccccc3)nn2)[C@H]1O` [Example A2, (2R,3R,4S,5R,6S)-6-(((3R,4R,5S)-4-hydroxy-5-(4-phenyl-1H-1,2,3-triazol-1-yl)tetrahydro-2H-pyran-3-yl)thio)-2-(hydroxymethyl)-5-methoxy-4-(4-(pyridin-4-yl)-1H-1,2,3-triazol-1-yl)tetrahydro-2H-pyran-3-ol]: the 50% inhibitory concentration (IC50) is 1100 nM.

Take `CO[C@@H]1[C@@H](n2cc(-c3ccc(-c4ccccc4)cc3)nn2)[C@@H](O)[C@@H](CO)O[C@H]1S[C@@H]1COC[C@H](n2cc(-c3ccccc3)nn2)[C@H]1O` [Example A3, (2R,3R,4S,5R,6S)-4-(4-([1,1′-biphenyl]-4-yl)-1H-1,2,3-triazol-1-yl)-6-(((3R,4R,5S)-4-hydroxy-5-(4-phenyl-1H-1,2,3-triazol-1-yl)tetrahydro-2H-pyran-3-yl)thio)-2-(hydroxymethyl)-5-methoxytetrahydro-2H-pyran-3-ol]: the IC50 was found to be 11000 nM.

For the molecule `CO[C@@H]1[C@@H](n2cc(-c3cccc(F)c3)nn2)[C@@H](O)[C@@H](CO)O[C@H]1S[C@@H]1COC[C@H](n2cc(-c3ccccc3)nn2)[C@H]1O` [Example A4, (2R,3R,4S,5R,6S)-4-(4-(3-fluorophenyl)-1H-1,2,3-triazol-1-yl)-6-(((3R,4R,5S)-4-hydroxy-5-(4-phenyl-1H-1,2,3-triazol-1-yl)tetrahydro-2H-pyran-3-yl)thio)-2-(hydroxymethyl)-5-methoxytetrahydro-2H-pyran-3-ol], the IC50 worked out at 26 nM.

For `CO[C@@H]1[C@@H](n2cc(-c3nccs3)nn2)[C@@H](O)[C@@H](CO)O[C@H]1S[C@@H]1COC[C@H](n2cc(-c3ccccc3)nn2)[C@H]1O` [Example A5, (2R,3R,4S,5R,6S)-6-(((3R,4R,5S)-4-hydroxy-5-(4-phenyl-1H-1,2,3-triazol-1-yl)tetrahydro-2H-pyran-3-yl)thio)-2-(hydroxymethyl)-5-methoxy-4-(4-(thiazol-2-yl)-1H-1,2,3-triazol-1-yl)tetrahydro-2H-pyran-3-ol], the IC50 amounted to 490 nM.

As to `CO[C@@H]1[C@@H](n2cc(-c3cncnc3)nn2)[C@@H](O)[C@@H](CO)O[C@H]1S[C@@H]1COC[C@H](n2cc(-c3ccccc3)nn2)[C@H]1O` [Example A6, (2R,3R,4S,5R,6S)-6-(((3R,4R,5S)-4-hydroxy-5-(4-phenyl-1H-1,2,3-triazol-1-yl)tetrahydro-2H-pyran-3-yl)thio)-2-(hydroxymethyl)-5-methoxy-4-(4-(pyrimidin-5-yl)-1H-1,2,3-triazol-1-yl)tetrahydro-2H-pyran-3-ol], the half-inhibitory concentration (IC50) was 360 nM.

For `CO[C@@H]1[C@@H](n2cc(-c3cncs3)nn2)[C@@H](O)[C@@H](CO)O[C@H]1S[C@@H]1COC[C@H](n2cc(-c3ccccc3)nn2)[C@H]1O` [Example A7, (2R,3R,4S,5R,6S)-6-(((3R,4R,5S)-4-hydroxy-5-(4-phenyl-1H-1,2,3-triazol-1-yl)tetrahydro-2H-pyran-3-yl)thio)-2-(hydroxymethyl)-5-methoxy-4-(4-(thiazol-5-yl)-1H-1,2,3-triazol-1-yl)tetrahydro-2H-pyran-3-ol], the IC50 was found to be 840 nM.

By IC50 is commonly meant the concentration that inhibits the measured activity by half.

For the origin of these results see US11970511B2, “Tetrahydropyran-based thiodisaccharide mimics as Galectin-3 inhibitors” (BRISTOL-MYERS SQUIBB COMPANY, priority 2018, dated 2024).
